In patent publication US6660718B1, “3-modified leucomycin derivatives” (Meiji Seika Kaisha, Ltd., priority 1999, dated 2003):
In brackets after ≈: the same amount, converted by molar mass.

Experiments:
[1] = tested on: Streptococcus pneumoniae DP1 TypeI; experiment: Antibacterial activity test (agar dilution MIC); type: cell-based; settings: agar plates, 37° C., about 20 hours
Protocol: (§1) In vitro antibacterial activities of the compounds of Examples 3, 5, 20, 23, 25 and 48 were determined as follows by referring to the standard method of the Japanese Society of Chemotherapy (Chemotherapy, 29, pp.76-79, 1981). For comparison, antibacterial activities of rokitamycin (RKM), leucomycin-A7 (LM-A7) and the compound described in U.S. Pat. No. 5,407,918, Example 7 were determined in the same manner.
(§2) For a solution of each test drug dissolved in methanol at 5000 μg/ml, a series of 2-fold dilutions were prepared. 200 μl of each solution of the test drug was added in a petri dish, added with 10 ml of agar medium for susceptibility measurement supplemented with 5% of sterile horse defibrinated blood, 15 μg/ml of β-nicotinamide adenine dinucleotide and 5 μg/ml of Hemin, and then mixed to prepare agar plates containing the test drug. A given volume of a culture broth for susceptibility measurement, which was prepared to contain a given cell numbers of bacteria to be tested, was inoculated to the agar plates containing the test drug by using a micro planter (Sakuma Seisakusho). After the inoculation, cultivation was carried out at 37° C. for about 20 hours. After the culture, presence or absence of the growth of the test bacteria on the plates was observed by visual inspection, and the minimum concentration at which no growth was observed was determined as minimum inhibitory concentration (MIC) of each test drug for each of the test bacteria The results are shown in Tables 1-1, 1-2 and 1-3.

[2] = tested on: Moraxella catarrhalis W-0500; experiment: Antibacterial activity test (agar dilution MIC); type: cell-based; settings: 37° C., about 20 hours; for Minimum inhibitory concentration (MIC): agar plates
Protocol: as §1, §2

[3] = tested on: Staphylococcus aureus MS15027 (ermC methylase); experiment: Antibacterial activity test (agar dilution MIC); type: cell-based; settings: for Minimum inhibitory concentration (MIC): Staphylococcus aureus MS15027 (ermC methylase), agar plates, 37° C., about 20 hours
Protocol: as §1, §2

[4] = tested on: Streptococcus pyogenes Cook; experiment: Antibacterial activity test (agar dilution MIC); type: cell-based; settings: agar plates, 37° C., about 20 hours
Protocol: as §1, §2

[5] = tested on: Staphylococcus aureus 209P JC-1; experiment: Antibacterial activity test (agar dilution MIC); type: cell-based; settings: agar plates, 37° C., about 20 hours
Protocol: as §1, §2

[6] = tested on: Haemophilus influenzae 9334; experiment: Antibacterial activity test (agar dilution MIC); type: cell-based; settings: agar plates, 37° C., about 20 hours
Protocol: as §1, §2

[7] = tested on: Micrococcus luteus ATCC9341; experiment: Antibacterial activity test (agar dilution MIC); type: cell-based; settings: agar plates, 37° C., about 20 hours
Protocol: as §1, §2

[8] = tested on: Streptococcus pneumoniae PRC-53 (mefE efflux); experiment: Antibacterial activity test (agar dilution MIC); type: cell-based; settings: for Minimum inhibitory concentration (MIC): Streptococcus pneumoniae PRC-53 (mefE efflux), agar plates, 37° C., about 20 hours
Protocol: as §1, §2

Gram-positive bacteria = experiment: Antibacterial activity test, overall comparison; type: cell-based; settings: for enhancement of the antibacterial activity compared to RKM and LM-A7: comparison of MIC values of Tables 1-1 and 1-2
Protocol: as §1, §2

[9] = tested on: Streptococcus pneumoniae IP692; experiment: Antibacterial activity test (agar dilution MIC); type: cell-based; settings: agar plates, 37° C., about 20 hours
Protocol: as §1, §2

[10] = tested on: Streptococcus pneumoniae TH-662 (ermAM methylase); experiment: Antibacterial activity test (agar dilution MIC); type: cell-based; settings: agar plates, 37° C., about 20 hours
Protocol: as §1, §2

[11] = tested on: Streptococcus pneumoniae PRC-91 (ermAM methylase); experiment: Antibacterial activity test (agar dilution MIC); type: cell-based; settings: agar plates, 37° C., about 20 hours
Protocol: as §1, §2

[12] = type: in vitro ADME; settings: 4 h
Protocol: Stability of the compound of Example 3 in plasma was studied as follows. Stability of RKM in plasma was also studied in the same manner for comparison. Blood was collected from rat ventral aorta and centrifuged (3000 rpm, 15 minutes) to separate plasma. 10 μl of a solution of a test drug dissolved in methanol at a concentration of 1600 μg/ml was added to 190 μl of the rat plasma and reacted at 37° C. At the start of the reaction and after 1, 2 and 4 hours, a part of the reaction mixture was collected and added with a given volume of an acetonitrile solution to prepare a bioassay sample for measurement of test medicament concentration. […] After the incubation, the diameter of the ring by growth inhibition of Micrococcus luteus ATCC9341 observed around the paper disc was measured by using a digital caliper. […] Based on a calibration curve obtained from concentrations of the standard solutions and diameters of growth inhibition rings, concentrations of the test drug in the samples at several time points were calculated, and then, by using the calculated remaining concentrations of the test drug in the samples at the time points, ratios of activity (%) based on the concentration at the start of the reaction, which was taken as 100%, were calculated. […]

[13] = tested on: resistant strains of Streptococcus pneumoniae; experiment: Antibacterial activity test, resistant strains, comparison; type: cell-based; settings: comparison of MIC values of Table 1-3; reversed versus natural configuration at 3-position
Protocol: as §1
as §2, with “A given volume of a culture broth for susceptibility measurement, which was prepared to contain a given cell numbers of bacteria to be tested, was inoculated to the agar plates containing the test drug by using a micro planter (Sakuma Seisakusho). After the inoculation, cultivation was carried out at 37° C. for about 20 hours.” left out

[14] = read-out: Minimum inhibitory concentration (MIC)

Structure (SMILES)	Minimum inhibitory concentration (MIC) [1] [µg/mL]	Minimum inhibitory concentration (MIC) [2] [µg/mL]	Minimum inhibitory concentration (MIC) [3] [µg/mL]	Minimum inhibitory concentration (MIC) [4] [µg/mL]	Minimum inhibitory concentration (MIC) [5] [µg/mL]	Minimum inhibitory concentration (MIC) [6] [µg/mL]	Minimum inhibitory concentration (MIC) [7] [µg/mL]	Minimum inhibitory concentration (MIC) [8] [µg/mL]	Minimum inhibitory concentration (MIC) [9] [µg/mL]	Minimum inhibitory concentration (MIC) [10] [µg/mL]	Minimum inhibitory concentration (MIC) [11] [µg/mL]	also measured
CCCC(=O)O[C@H]1[C@H](C)O[C@@H](O[C@H]2[C@H](N(C)C)[C@@H](O)[C@H](O[C@H]3[C@@H](CC=O)C[C@@H](C)[C@@H](O)/C=C/C=C/C[C@@H](C)OC(=O)C[C@@H](O)[C@@H]3OC)O[C@@H]2C)C[C@@]1(C)OC(=O)CC [RKM, rokitamycin, reference compound]	–	–	–	–	–	–	–	–	–	–	–	MIC ([1]; DP1TYPEI, read-out: Minimum inhibitory concentration (MIC)): 0.1 µg/mL (≈ 0.121 µM); MIC ([2]; W0500, agar plates, read-out: Minimum inhibitory concentration (MIC)): 0.2 µg/mL (≈ 0.242 µM); MIC ([3]; Staphylococcus aureus, 20 h, read-out: Minimum inhibitory concentration (MIC)): 0.39 µg/mL (≈ 0.471 µM); MIC [4, 14]: 0.05 µg/mL (≈ 0.0604 µM); MIC [5, 14]: 0.2 µg/mL (≈ 0.242 µM); MIC [6, 14]: 1.56 µg/mL (≈ 1.88 µM); MIC [7, 14]: 0.05 µg/mL (≈ 0.0604 µM); MIC ([8]; Streptococcus pneumoniae, 20 h, read-out: Minimum inhibitory concentration (MIC)): 0.2 µg/mL (≈ 0.242 µM)
COC1CC(=O)OC(C)CC=CC=CC(O)C(C)CC(CC=O)C(OC2OC(C)C(OC3CC(C)(OC)C(OCCC(C)C)C(C)O3)C(N(C)C)C2O)C1OC (centres unmarked) [Example 20, 4″-O-Isoamyl-3,3″-di-O-methylleucomycin V]	0.10 (≈ 0.125 µM)	0.39 (≈ 0.487 µM)	0.39 (≈ 0.487 µM)	0.10 (≈ 0.125 µM)	0.20 (≈ 0.25 µM)	1.56 (≈ 1.95 µM)	0.05 (≈ 0.0625 µM)	0.10 (≈ 0.125 µM)	–	–	–	antibacterial activity compared with the compound described in Example 7 of U.S. Pat. No. 5,407,918 (Gram-positive bacteria; comparison of MIC values of Table 1-2): almost the same antibacterial activity
CCC(=O)O[C@H]1[C@H](C)O[C@@H](O[C@H]2[C@H](N(C)C)[C@@H](O)[C@H](O[C@H]3[C@@H](CC=O)C[C@@H](C)[C@@H](O)/C=C/C=C/C[C@@H](C)OC(=O)C[C@@H](O)[C@@H]3OC)O[C@@H]2C)C[C@@]1(C)O [LM-A7, leucomycin-A7, reference compound]	0.20 (≈ 0.264 µM)	0.78 (≈ 1.03 µM)	0.39 (≈ 0.515 µM)	0.10 (≈ 0.132 µM)	0.39 (≈ 0.515 µM)	1.56 (≈ 2.06 µM)	0.10 (≈ 0.132 µM)	0.20 (≈ 0.264 µM)	0.39 (≈ 0.515 µM)	>100	>100	–
CCC(=O)OC1C(C)OC(OC2C(C)OC(OC3C(CC=O)CC(C)C(O)C=CC=CCC(C)OC(=O)CC(OC)C3OC)C(O)C2N(C)C)CC1(C)O (centres unmarked) [Example 23, 3-O-Methylleucomycin A7]	0.10 (≈ 0.13 µM)	0.78 (≈ 1.01 µM)	0.20 (≈ 0.259 µM)	0.10 (≈ 0.13 µM)	0.20 (≈ 0.259 µM)	1.56 (≈ 2.02 µM)	0.05 (≈ 0.0648 µM)	0.10 (≈ 0.13 µM)	–	–	–	enhancement of the antibacterial activity compared to RKM and LM-A7 (Gram-positive bacteria): two-fold
CCCC(=O)OC1C(C)OC(OC2C(C)OC(OC3C(CC=O)CC(C)C(O)C=CC=CCC(C)OC(=O)CC(OC)C3OC)C(O)C2N(C)C)CC1(C)OC(=O)CC (centres unmarked) [Example 3, 3-O-Methylrokitamycin]	0.05 (≈ 0.0594 µM)	0.20 (≈ 0.238 µM)	0.20 (≈ 0.238 µM)	0.025 (≈ 0.0297 µM)	0.10 (≈ 0.119 µM)	3.13 (≈ 3.72 µM)	0.025 (≈ 0.0297 µM)	0.10 (≈ 0.119 µM)	–	–	–	enhancement of the antibacterial activity compared to RKM and LM-A7 (Gram-positive bacteria): two-fold; Stability in rat plasma (remaining antibacterial activity with time) [12]: more stable in the rat plasma than RKM
CCC(=O)OC1C(C)OC(OC2C(C)OC(OC3C(CC=O)CC(C)C(O)C=CC=CCC(C)OC(=O)CC(OC(=O)c4ccccc4)C3OC)C(O)C2N(C)C)CC1(C)O (centres unmarked) [Example 25, 3-O-Benzoylleucomycin A7]	–	1.56 (≈ 1.81 µM)	–	–	0.39 (≈ 0.452 µM)	6.25 (≈ 7.25 µM)	–	0.39 (≈ 0.452 µM)	0.39 (≈ 0.452 µM)	>100	>100	–
CCC(=O)OC1C(C)OC(OC2C(C)OC(OC3C(CC=O)CC(C)C(O)C=CC=CCC(C)OC(=O)CC(OC(=O)c4ccccc4)C3OC)C(O)C2N(C)C)CC1(C)O (stereo not drawn) [Example 48, 3-Epi-3-O-benzoylleucomycin A7]	–	0.78 (≈ 0.905 µM)	0.78 (≈ 0.905 µM)	–	0.39 (≈ 0.452 µM)	6.25 (≈ 7.25 µM)	–	0.20 (≈ 0.232 µM)	0.20 (≈ 0.232 µM)	25 (≈ 29 µM)	25 (≈ 29 µM)	antibacterial activity against the resistant strains of Streptococcus pneumoniae, compared with Example 25 [13]: improvement in antibacterial activity
C=CCOC1CC(=O)OC(C)CC=CC=CC(O)C(C)CC(CC=O)C(OC2OC(C)C(OC3CC(C)(OC(=O)CC)C(OC(=O)CCC)C(C)O3)C(N(C)C)C2O)C1OC (centres unmarked) [Example 5, 3-O-Allylrokitamycin]	0.20 (≈ 0.23 µM)	0.39 (≈ 0.449 µM)	0.39 (≈ 0.449 µM)	0.10 (≈ 0.115 µM)	0.20 (≈ 0.23 µM)	6.25 (≈ 7.2 µM)	0.10 (≈ 0.115 µM)	0.20 (≈ 0.23 µM)	–	–	–	–
